The text below walks through data of patent US20260199484A1, “PROTAC DEGRADERS OF MLLT1 AND/OR MLLT3” (DARK BLUE THERAPEUTICS LTD, priority 2024, published 2026).

Molecules are shown by their SMILES. Where only a bound is given, the exact number is not on record here.

One test concerns MV4-11 cells. In words: MV4-11 cellular proliferative assay, Assay Format A (CellTiter-Glo, 120 h). It counts as cell-based. The note with it: Homo sapiens, Assay format A, 120 h, read-out: IC50 (MV4-11 cellular proliferative assay). The method, then:
An MV4-11 proliferation assay was used to test the ability of compounds to reduce cell viability. MV4-11 cells (ATCC #CRL9591) were grown in IMDM medium (11510596, Gibco) supplemented with 10% fetal bovine serum (F7524, Gibco) and 1% Penicillin/Streptomycin (15140-122, Gibco) at 37° C. with 5% CO2. Cells were seeded in 384-well Elplasia plates (4447, Corning) at a density of 50 cells/well and treated with vehicle (DMSO) or compounds (10 serial semi-log dilutions, 30 μM as top concentration).
After 120 hours of treatment, cells were incubated for 10 min at RT with the CellTiter-Glo (CTG) reagent (G7571, Promega). Measurement of the luminescence signal was performed on a microplate reader (Ensight, PerkinElmer). CTG reagent measures the amount of ATP, which is directly proportional to the number of cells, to determine the number of viable cells in culture.
The data were analysed as follows:
[formula] • where x is the measured raw signal value of a well, (cr) is the median of the measured signal values for the Central Reference (DMSO) wells on a plate, (sr) is the median of the measured signal values for the Scale Reference (reference compound) wells on a plate.
[formula] • where the experimental set-up assumes the Hill parameters in certain ranges: S0~Central Reference (CR) from normalization (=Bottom), Sinf~Scale Reference (SR) from normalization (=Top), nHill ~1, AC50~within the measured concentration range.

The target in the next test is T1, MLLT1 (Homo sapiens, UniProt Q03111).
T1 sequence (Q03111 1-559): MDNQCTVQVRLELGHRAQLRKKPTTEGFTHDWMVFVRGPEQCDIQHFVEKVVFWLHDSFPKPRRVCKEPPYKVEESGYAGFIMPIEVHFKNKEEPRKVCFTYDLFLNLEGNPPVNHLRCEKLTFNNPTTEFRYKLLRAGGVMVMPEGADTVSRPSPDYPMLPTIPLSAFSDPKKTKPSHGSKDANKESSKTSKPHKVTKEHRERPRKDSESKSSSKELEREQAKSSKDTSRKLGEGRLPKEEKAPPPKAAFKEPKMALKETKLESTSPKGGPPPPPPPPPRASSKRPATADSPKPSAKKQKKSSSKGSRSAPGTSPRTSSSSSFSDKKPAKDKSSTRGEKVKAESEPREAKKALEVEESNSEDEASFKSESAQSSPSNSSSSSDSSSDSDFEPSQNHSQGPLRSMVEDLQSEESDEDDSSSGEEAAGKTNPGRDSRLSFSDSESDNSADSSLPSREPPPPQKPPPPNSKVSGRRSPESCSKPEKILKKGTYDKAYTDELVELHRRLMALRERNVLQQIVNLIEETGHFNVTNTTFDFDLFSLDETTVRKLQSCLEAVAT
In words: MLLT1 degradation assay in MV4-11 cells (JESS, 24 h). It counts as cell-based. More on the design: endogenous in cells; host or cells: MV4-11 (ATCC CRL-9591). The following applies: vs DMSO control. Here is the method:
MLLT1 degradation efficacy of compounds was tested in an automated chemiluminescent detection system (JESS, Cat #004-650). MV4-11 (#CRL-9591, ATCC) cells were seeded at a density of 1.2 million cells/well in a non-treated 6-well cell culture plate in 2.4 mL of complete medium (IMDM+10% FBS+1× Penicillin-Streptomycin). 10 mM DMSO stocks were prepared, and cells were treated with three concentrations of test compounds viz. 1000, 100 and 10 nM at a final DMSO concentration of 0.1% and incubated for 24 h at 37° C., 5% CO2. Post incubation, cells were centrifuged, washed with HBSS and lysed in 70 μL of RIPA buffer supplemented with Protease inhibitors (sc-24948; Santa Cruz). Subsequently, protein estimation was done using BCA protein assay kit (23225; Pierce). 4 ug protein lysate (4 uL of 1 ug/uL lysate) was loaded into each well of the JESS cartridge (SM-W001; Bio-techne) and the JESS run was performed using 1:900 dilution of anti-human MLLT1 antibody (14893; Cell signaling technology) and 1:1200 dilution of anti-human GAPDH antibody (2118; Cell signaling technology) with anti-rabbit secondary detection module (DM-001; Bio-Techne). Post run, data were analysed using “Compass for SW” software for chemiluminescent detection. The peak area for each band was used for the calculation of MLLT1 degradation with respect to DMSO control. Data is shown as “MLLT1% degradation”. • Category A: A≥75% degradation • Category B: 50%≤B<75% degradation • Category C: 25%≤C<50% degradation • Category D: D<25% degradation

Take `Cc1nn(CCCCCC#Cc2cccc3c2n(C)c(=O)n3C2CCC(=O)NC2=O)c2cc(C(=O)Nc3cc4[nH]c([C@H]5CCCN5C)cc4cn3)ccc12` (stereo partly drawn) [Example 11, 1-{7-[1-(2,6-dioxopiperidin-3-yl)-3-methyl-2-oxo-1,3-benzodiazol-4-yl]hept-6-yn-1-yl}-3-methyl-N-{2-[(2R)-1-methylpyrrolidin-2-yl]-1H-pyrrolo[3,2-c]pyridin-6-yl}indazole-6-carboxamide]: in the test with MV4-11 cells, the IC50 was under 0.1 µM. In addition, on MLLT1, the “MLLT1% Degradation @ 0.01 μM” value is “B (Category B: 50%≤B<75% degradation)”, the “MLLT1% Degradation @ 0.1 μM” value is “B (Category B: 50%≤B<75% degradation)” and the “MLLT1% Degradation @ 1 μM” value is “B (Category B: 50%≤B<75% degradation)”.
On to `Cc1nn(CCOCCOCCNc2cccc3c2C(=O)N(C2CCC(=O)NC2=O)C3=O)c2cc(C(=O)Nc3cc4[nH]c([C@H]5CCCN5C)cc4cn3)ccc12` (stereo partly drawn) [Example 25, 1-(2-(2-(2-((2-(2,6-dioxopiperidin-3-yl)-1,3-dioxoisoindolin-4-yl)amino)ethoxy)ethoxy)ethyl)-3-methyl-N-(2-((R)-1-methylpyrrolidin-2-yl)-1H-pyrrolo[3,2-c]pyridin-6-yl)-1H-indazole-6-carboxamide], for which the IC50 with MV4-11 cells is under 0.1 µM. On MLLT1, the “MLLT1% Degradation @ 0.1 μM” value is “A (Category A: A≥75% degradation)” and the “MLLT1% Degradation @ 1 μM” value is listed as “A (Category A: A≥75% degradation)”.
On to `Cc1nn(CCOCCNc2cccc3c2C(=O)N(C2CCC(=O)NC2=O)C3=O)c2cc(C(=O)Nc3cc4[nH]c([C@H]5CCCN5C)cc4cn3)ccc12` (stereo partly drawn) [Example 26, 1-(2-(2-((2-(2,6-dioxopiperidin-3-yl)-1,3-dioxoisoindolin-4-yl)amino)ethoxy)ethyl)-3-methyl-N-(2-((R)-1-methylpyrrolidin-2-yl)-1H-pyrrolo[3,2-c]pyridin-6-yl)-1H-indazole-6-carboxamide], for which the IC50 in the test with MV4-11 cells is under 0.1 µM. Also, on MLLT1, the “MLLT1% Degradation @ 0.1 μM” value was “A (Category A: A≥75% degradation)” and the “MLLT1% Degradation @ 1 μM” value is “A (Category A: A≥75% degradation)”.
As to `Cc1nn(CCCCCCCC#Cc2cccc(C(=O)N[C@H]3CCC(=O)NC3=O)n2)c2cc(C(=O)Nc3cc4[nH]c([C@H]5CCCN5C)cc4cn3)ccc12` [Example 42, 1-(9-(6-(((S)-2,6-dioxopiperidin-3-yl)carbamoyl)pyridin-2-yl)non-8-yn-1-yl)-3-methyl-N-(2-((R)-1-methylpyrrolidin-2-yl)-1H-pyrrolo[3,2-c]pyridin-6-yl)-1H-indazole-6-carboxamide], the IC50 in the test with MV4-11 cells was under 0.1 µM. On MLLT1, the “MLLT1% Degradation @ 0.01 μM” value is reported as “B (Category B: 50%≤B<75% degradation)”, the “MLLT1% Degradation @ 0.1 μM” value was “A (Category A: A≥75% degradation)” and the “MLLT1% Degradation @ 1 μM” value is “A (Category A: A≥75% degradation)”.
As to `Cc1nn(CCCCCN2CCN(c3cccc4c3C(=O)N(C3CCC(=O)NC3=O)C4=O)CC2)c2cc(C(=O)Nc3cc4[nH]c([C@H]5CCCN5C)cc4cn3)ccc12` (stereo partly drawn) [Example 47, 1-(5-(4-(2-(2,6-dioxopiperidin-3-yl)-1,3-dioxoisoindolin-4-yl)piperazin-1-yl)pentyl)-3-methyl-N-(2-((R)-1-methylpyrrolidin-2-yl)-1H-pyrrolo[3,2-c]pyridin-6-yl)-1H-indazole-6-carboxamide], the IC50 with MV4-11 cells is under 0.1 µM. In addition, on MLLT1, the “MLLT1% Degradation @ 0.01 μM” value is “D (Category D: D<25% degradation)”, the “MLLT1% Degradation @ 0.1 μM” value is on record as “D (Category D: D<25% degradation)” and the “MLLT1% Degradation @ 1 μM” value is reported as “B (Category B: 50%≤B<75% degradation)”.
As to `Cc1nn(CCCCCCCCOc2cccc3c2C(=O)N(C2CCC(=O)NC2=O)C3=O)c2cc(C(=O)Nc3cc4[nH]c([C@H]5CCCN5C)cc4cn3)ccc12` (stereo partly drawn) [Example 12, 1-(8-((2-(2,6-dioxopiperidin-3-yl)-1,3-dioxoisoindolin-4-yl)oxy)octyl)-3-methyl-N-(2-((R)-1-methylpyrrolidin-2-yl)-1H-pyrrolo[3,2-c]pyridin-6-yl)-1H-indazole-6-carboxamide], in the test on MV4-11 cells, the IC50 was under 0.1 µM.
Consider `Cc1nn(CCCCCCCCNc2ccc3c(c2)C(=O)N(C2CCC(=O)NC2=O)C3=O)c2cc(C(=O)Nc3cc4[nH]c([C@H]5CCCN5C)cc4cn3)ccc12` (stereo partly drawn) [Example 14, 1-(8-{[2-(2,6-dioxopiperidin-3-yl)-1,3-dioxoisoindol-5-yl]amino}octyl)-3-methyl-N-{2-[(2R)-1-methylpyrrolidin-2-yl]-1H-pyrrolo[3,2-c]pyridin-6-yl}indazole-6-carboxamide], for which the IC50 in the test with MV4-11 cells was under 0.1 µM.
In the case of `Cc1nn(CCCCN2CCN(c3ccc4c(c3)C(=O)N(C3CCC(=O)NC3=O)C4=O)CC2)c2cc(C(=O)Nc3cc4[nH]c([C@H]5CCCN5C)cc4cn3)ccc12` (stereo partly drawn) [Example 19, 1-(4-{4-[2-(2,6-dioxopiperidin-3-yl)-1,3-dioxoisoindol-5-yl]piperazin-1-yl}butyl)-3-methyl-N-{2-[(2R)-1-methylpyrrolidin-2-yl]-1H-pyrrolo[3,2-c]pyridin-6-yl}indazole-6-carboxamide], the IC50 in the test with MV4-11 cells is under 0.1 µM.
`Cc1nn(CCCNc2cccc3c2C(=O)N(C2CCC(=O)NC2=O)C3=O)c2cc(C(=O)Nc3cc4[nH]c([C@H]5CCCN5C)cc4cn3)ccc12` (stereo partly drawn) [Example 13, 1-(3-((2-(2,6-dioxopiperidin-3-yl)-1,3-dioxoisoindolin-4-yl)amino)propyl)-3-methyl-N-(2-((R)-1-methylpyrrolidin-2-yl)-1H-pyrrolo[3,2-c]pyridin-6-yl)-1H-indazole-6-carboxamide]: the IC50 in the test with MV4-11 cells is under 0.1 µM.
As to `Cc1nn(CCCCCCCCOc2ccc3c(c2)C(=O)N(C2CCC(=O)NC2=O)C3=O)c2cc(C(=O)Nc3cc4[nH]c([C@H]5CCCN5C)cc4cn3)ccc12` (stereo partly drawn) [Example 8, 1-(8-{[2-(2,6-dioxopiperidin-3-yl)-1,3-dioxoisoindol-5-yl]oxy}octyl)-3-methyl-N-{2-[(2R)-1-methylpyrrolidin-2-yl]-1H-pyrrolo[3,2-c]pyridin-6-yl}indazole-6-carboxamide], the IC50 with MV4-11 cells was under 0.1 µM.
Turning to `Cc1nn(C2CCN(CCCNc3cccc4c3C(=O)N(C3CCC(=O)NC3=O)C4=O)CC2)c2cc(C(=O)Nc3cc4[nH]c([C@H]5CCCN5C)cc4cn3)ccc12` (stereo partly drawn) [Example 7, 1-[1-(3-{[2-(2,6-dioxopiperidin-3-yl)-1,3-dioxoisoindol-4-yl]amino}propyl)piperidin-4-yl]-3-methyl-N-{2-[(2R)-1-methylpyrrolidin-2-yl]-1H-pyrrolo[3,2-c]pyridin-6-yl}indazole-6-carboxamide], the IC50 with MV4-11 cells is under 0.1 µM.
`Cc1nn(CCCCCCCCNc2cccc3c2CN(C2CCC(=O)NC2=O)C3=O)c2cc(C(=O)Nc3cc4[nH]c([C@@H]5CCCN5C)cc4cn3)ccc12` (stereo partly drawn) [Example 17, 1-(8-{[2-(2,6-dioxopiperidin-3-yl)-1-oxo-3H-isoindol-4-yl]amino}octyl)-3-methyl-N-{2-[(2S)-1-methylpyrrolidin-2-yl]-1H-pyrrolo[3,2-c]pyridin-6-yl}indazole-6-carboxamide]: in the test with MV4-11 cells, the IC50 is under 0.1 µM.
